US20240279687A1, “PEPTIDE NUCLEIC ACIDS FOR SPATIOTEMPORAL CONTROL OF CRISPR-CAS BINDING” (Yale University, priority 2021, published 2024)
{Lys} = L-lysine residue attached to the PNA terminus

Legend:
[1] = system: 20mer RNA oligonucleotide (spacer sequence designed to target the BFP gene); assay: UV spectroscopy thermal melting analysis of duplexes; assay type: binding; conditions: 1 μM each strand, 10 mM sodium phosphate buffer pH 7.4
Description: All samples were prepared by mixing a stoichiometric amount of each strand (1 μM) in 10 mM sodium phosphate buffer at pH 7.4 (Table 8). The samples were pre-annealed at 95° C. for 5 mins and gradually cooled to room temperature prior to the melting experiment. UV melting experiments were performed using a Shimadzu UV-3600 Plus UV-Vis-NIR spectrophotometer equipped with a thermoelectrically controlled multicell holder. UV melting spectra were recorded after every 1° C. temperature change by monitoring the absorbance at 260 nm from 20° C. to 110° C. to 20° C., with a heating/cooling ramp rate of 1.0° C./min. The heating and cooling curves were overlapped to confirm reversible denaturation. All spectra were plotted on Origin 2020 and smoothed using a 20-point adjacent averaging algorithm. The first derivative plots of the melting curves were generated to determine the melting temperature for each duplex.

[2] = system: Cas9 RNP using a sgRNA targeted to the BFP gene; assay: Cas9 RNP editing of BFP reporter gene in K562-BFP cells (BFP fluorescent drop out, flow cytometry); assay type: cell-based, human; conditions: for inhibitory effect on Cas9-mediated BFP gene disruption and indel formation: 0-250 pmol nucleofected 2 hours prior to Cas9 RNP
Description: (§1) For Cas9 RNP assembly, 50 pmol of sgRNA (IDT, Alt-R CRISPR-Cas9 sgRNA) and 45 pmol of SpCas9 (CPO2, PNA BIO) were incubated at room temperature for 10 minutes in a 5 μL reaction in 1×3.1 Buffer (B7203S, NEB). For nucleofections, 1×10^6 cells, 5 μL Cas9 RNP, and 1 μL of Alt-R Cas9 electroporation enhancer (IDT) were resuspended in 100 μL of Lonza cell line solution (V4XC-2024/V4XC-1024, Lonza) and nucleofected using a Lonza 4D-Nucleofector X unit. Cas9 RNP treated cells were seeded in 2 mL of complete media and incubated for 96 hours prior to harvesting for analysis.
(§2) For PNA pre-treatments, 1×10^6 cells and 1 μL of PNA diluted to desired concentration in water were similarly nucleofected using Lonza cell line kits and 4D-Nucleofector. PNA nucleofected cells were resuspended in 1.25 mL of complete media in 1.5 mL tubes and incubated at 37° C. for 2 hours before Cas9 RNP nucleofection as described above. After Cas9 RNP nucleofection cells were seeded in 2 mL of complete media and incubated for 96 hours prior to harvesting and analysis.
K562 cells were spun down and resuspended in fresh complete media at 300,000 cells/mL 48 hours prior to analysis. Samples for flow cytometry were fixed in complete media with 1% formaldehyde for 15 minutes before spinning down, resuspending in 300 μL PBS, and filtering through a cell strainer capped tube. Samples were analyzed for BFP and GFP fluorescence using a Cytoflex LX instrument (Beckman Coulter) using PacificBlue and FITC lasers, respectively, and quantification and gating was done using FloJo v10 software. Background fluorescent drop out was determined by measurement of mock nucleofected lines in quadruplicate and subtracted from experimental values to determine reported editing frequency.
10^6 stable BFP-expressing K562 cells were nucleofected (Lonza 4D Nucleofector) with a specified dose of PNA or ssDNA oligo (0-250 pmol). Two hours later, all conditions were nucleofected with 45 pmol of purified Cas9 RNP using a sgRNA targeted to the BFP gene. 72 hours later, cells with BFP fluorescent drop out (via Cas9 indel formation) were quantified by flow cytometry (Beckman Coulter—Cytoflex instrument).
In time-course experiments in FIG. 3D, K562 samples were nucleofected with 5 μL RNP reactions with the addition of 100 pmol of ssODN donor in 1 μL of water. RNP nucleofected samples were incubated at 37° C. in complete media before being spun down and nucleofected with 250 pmol of PNA at specified time points. After PNA delivery cells were seeded in 2 mL of complete media and incubated for 96 hours prior to harvesting and analysis.
10^6 stable BFP-expressing K562 cells were nucleofected (Lonza 4D Nucleofector) with specified dose (0-250 pmol, or 250 pmol if unspecified) of specified PNA with sequences homologous to (antispacer) or identical to (cis-spacer) the BFP gRNA spacer sequence. Two hours later, all conditions were nucleofected with 45 pmol of purified Cas9 RNP using a sgRNA targeted to the BFP gene. 72 hours later, cells with BFP fluorescent drop out (via Cas9 indel formation) were quantified by flow cytometry (Beckman Coulter—Cytoflex instrument).
10^6 stable BFP-expressing K562 cells were nucleofected (Lonza 4D Nucleofector) with 45 pmol of purified Cas9 RNP using a sgRNA targeted to the BFP gene. At each specified time point 250 pmol of BFP Anti-protospacer PNA were introduced via nucleofection. For “Cas9 only” condition there was no second PNA nucleofection and for “0 hrs” 250 pmol of PNA was co-nucleofected with Cas9 in a single reaction. After each nucleofection samples were left in fresh media for the duration of the experiment to acquire edits. 72 hours after the “24 hrs” nucleofection, cells for all conditions with BFP fluorescent drop out (via Cas9 indel formation) were quantified by flow cytometry (Beckman Coulter—Cytoflex instrument).

[3] = system: Cas9 RNP using a sgRNA targeted to the HBB gene (R-01); assay: Cas9 RNP editing at HBB in K562 cells (amplicon sequencing); assay type: cell-based, human
Description: as §1, §2
10^6 stable BFP-expressing K562 cells were nucleofected (Lonza 4D Nucleofector) with a specified dose of BFP cis-protospacer PNA or HBB PNA (0-250 pmol). Two hours later, all conditions were nucleofected with 45 pmol of purified Cas9 RNP using a sgRNA targeted to the BFP gene or targeted to the HBB gene (R-01). 72 hours later, cells with BFP fluorescent drop out (via Cas9 indel formation) were quantified by flow cytometry (Beckman Coulter Cytoflex instrument) for the BFP target (FIG. 3A). For the HBB target (FIG. 3B-3C), 72 hours post-treatment gDNA was extracted (Promega ReliaPrep) and the region of interest was PCR amplified (NEB Phusion). Indel frequency was measured by T7 endonuclease assay (NEB—EnGen Mutation Detection Kit).
(§3) Genomic DNA was purified from 0.5×10^6 cells using Promega ReliaPrep gDNA Tissue Miniprep System (A2052) and eluted in 50 μL of water. Library prep used 100 ng of gDNA input with Ampliseq for Illumina Library Plus kit (20019101, Illumina) and used a custom primer pool designed to amplify a designed panel of genomic targets of interest (Table 9). Libraries were indexed, pooled, and loaded onto a Mid-output (300-cycles, Illumina, FC-420-1004) cartridge for paired-end sequencing on an Illumina Miniseq instrument. FASTQ reads were subjected to quality analysis (Basespace FASTQC) and analyzed for indel frequency using Cas-Analyzer assessment tool (parameters: Comparison range (R)—both ends of full amplicon sequence, Minimum frequency (n)=1). gRNAs used in this study are listed in Table 8, amplicon genomic coordinates listed in Table 9.

[4] = system: Cas9 RNP (FANCF, EMX1, ZSCAN2, CCR5, VEGFA gRNAs); assay: On-target specificity of Cas9 RNP (ratio of on-target to off-target editing rates); assay type: cell-based, human
Description: as §2, §3
In the case of EMX1 ON and OFF target amplicons, both regions were amplified from 200 ng of purified gDNA by Phusion High-Fidelity Polymerase (NEB, M0530S) and pooled and purified using QIAGEN PCR purification kit (28104, Qiagen). Library prep used 200 ng of purified amplicon input with Illumina DNA Prep kit (20025519, Illumina). EMX1 libraries were similarly indexed, pooled, sequenced, and analysed as above.
For pre-annealed PAM-distal PNA experiments, 50 pmol of sgRNA and 50 pmol of PAM-distal 10mer PNAs were incubated in a thermocycler at 37° C. for 30 minutes in a 5 μL reaction in 1×3.1 Buffer (B7203S, NEB) to allow annealing. PNA annealing to sgRNAs was confirmed by gel shift on 5% polyacrylamide gel. 45 pmol of SpCas9 (CP02, PNA BIO) was then added at room temperature and incubated for 10 minutes to allow RNP formation. Resulting reaction was delivered to 1×10^6 K562 cells by a single nucleofection and treated as described above.

dCas9-VPR / POU5F1 sgRNA = assay: CRISPRa (dCas9-VPR) POU5F1 expression in stable K562 cells, RT-qPCR; assay type: cell-based, human; conditions: 250 pmol PNA
Description: Stable K562-hEF1α-dCas9-VPR line was established by lentiviral transduction using Edit-R purified lentiviral particles (Horizon Discovery) and blasticidin selection (5 μg/mL, A1113903, Gibco). dCas9-VPR integration was confirmed by western blot with CRISPR-Cas9 antibody (7A9-3A3, Novus). dCas9-VPR expressing line was further transduced with Edit-R CRISPRa human POU5F1 sgRNA purified lentiviral particles (VSGH11902, Horizon Discovery, Table 4) and puromycin selection (2 μg/mL, Gibco).
4×10^6 stable dCas9-VRP/POU5F1 sgRNA expressing K562 cells (generated using lentivirus from Horizon Discovery), or K562 cells, were nucleofected with 250 pmol of specified PNA (non-targeting BFP or POU5F1) using a Lonza 4D nucleofector. At each specified time point 500 μL of cells were removed from each condition flask, spun down, and frozen. RNA was extracted from each pellet using QIAGEN Rneasy Mini Kits and cDNA was generated using Applied Biosystems High Capacity cDNA reverse transcription kit. rtPCR reactions were conducted for each sample using a StepOnePLUS Real-Time PCR System (Applied Biosystems) using Taqman Fast Advanced Master Mix and TaqMan gene specific probes for POU5F1 and GAPDH. Expression relative to the untreated parent K562 line was recorded as fold-change and calculated using the ΔΔCT method.
For RNA extractions 0.5×10^6 K562 cells were spun down, washed once with PBS, homogenized using QIAshredder columns (QIAGEN 79656) and processed using QIAGEN RNeasy mini kits (74106) before eluting in 50 μL of water. Resulting RNA was used as input for high-capacity cDNA Reverse Transcription Kit (Applied Biosystems) and resulting reaction was diluted 1:5 with water. RT-qPCR reactions were conducted in triplicate for each sample using a StepOnePLUS Real-Time PCR System (Applied Biosystems) and Taqman Fast Advanced Master Mix (Applied Biosystems) with TaqMan gene specific probes (Table 8). Expression relative to the untreated K562 parent line was recorded as fold-change and calculated from averaged CT values using the ΔΔCT method.

[5] = 150 pmol dose, three replicates

ATGGCGTGCAGTGCTTCAGC (KKK-ATGGCGTGCAGTGCTTCAGC-KKK; as printed in the source, key not given here) [Anti-protospacer ssDNA oligo, reference compound]
Tm of duplex with RNA spacer sequence [1]: 56 °C
inhibitory effect on Cas9-mediated BFP gene disruption and indel formation [2]: entirely ineffective
inhibitory effect on Cas9-mediated BFP gene disruption and indel formation ([2]; listed as antispacer DNA): no effect

AUGGCGUGCAGUGCUUCAGC (chemistry not given here) [Antispacer RNA (melting study), complementary RNA oligomer (length 20nt), IDT]
Tm of duplex with RNA spacer sequence [1]: 69 °C

CCAACTGCAT (all peptide nucleic acid (PNA); further chemistry not fully specified) [HBB R-01 PAMprox 10 mer PNA, 1 Lysine (K) on either end]
HBB editing ([3]; 50 pmol PNA (45.2% without PNA)): 0.102%
mean fold reduction of HBB target editing [3, 5]: 2,372 fold
total indels detected across 28,104 analyzed amplicons [3, 5]: 6
fold reduction of HBB target editing ([3]; 1:1 PNA:sgRNA ratio (50 pmol)): 443 fold

GCTCGGACTC (all peptide nucleic acid (PNA); further chemistry not fully specified) [EMX1 PAMdist 10 mer PNA]
specificity ratio versus Cas9 only ([4]; K562, HEK293, and U2OS cell lines, PNA pre-treatment prior to Cas9 RNP nucleofection): significantly increased specificity ratios
specificity versus pre-treatment approaches ([4]; PNA pre-annealed to sgRNA prior to Cas9 RNP formation, delivered as a single complex, K562): further improved specificity

K-ATGGCGTGCA-K (all peptide nucleic acid (PNA), 5' {Lys}, 3' {Lys}) [BFP PAM-proximal PNA]
reduction of BFP editing ([2]; 50 pmol dose): 96.0%
reduction of BFP editing ([2]; 250 pmol dose): 99.7%
fold reduction in editing ([2]; 1:1 PNA:sgRNA molar ratio (50 pmol)): 24.5 fold
fold reduction in editing ([2]; 5:1 PNA:sgRNA ratio (250 pmol)): 342.6 fold

K-GTGCAGTGCT-K (all peptide nucleic acid (PNA), 5' {Lys}, 3' {Lys}) [BFP PAM-middle PNA]
fold reduction in editing ([2]; 5:1 PNA:sgRNA ratio (250 pmol)): 32.4 fold

K-GTGCTTCAGC-K (all peptide nucleic acid (PNA), 5' {Lys}, 3' {Lys}) [BFP PAM-distal PNA]
inhibitory effect on Cas9-mediated BFP gene disruption and indel formation [2]: attenuated effect
reduction of BFP editing ([2]; 50 pmol dose): 10%
reduction of BFP editing ([2]; 250 pmol dose): 32%

KKK-CCACCATTAGGCAAACATCC-KKK (all peptide nucleic acid (PNA), 5' {Lys}-{Lys}-{Lys}, 3' {Lys}-{Lys}-{Lys}) [POU5F1 CRISPRa PNA]
duration of the full effect (dCas9-VPR / POU5F1 sgRNA): 2 to 3 days
effect on CRISPRa upregulated POU5F1 expression (dCas9-VPR / POU5F1 sgRNA): down to the level of the parental K562 line
time after treatment at which the effect appears to dissipate (dCas9-VPR / POU5F1 sgRNA): approximately 5 days
time by which POU5F1 expression dropped to the level of the parent line expression (dCas9-VPR / POU5F1 sgRNA): ≤ 48 h
time by which expression began to return to its upregulated baseline (dCas9-VPR / POU5F1 sgRNA): ≤ 120 h

KKK-GGGTTAAGGCAATAGCAATA-KKK [GFP Non-Targeting PNA]
inhibitory effect on Cas9-mediated BFP gene disruption and indel formation ([2]; listed as heterologous GFP PNA): no effect
inhibitory effect on Cas9-mediated BFP gene disruption and indel formation ([2]; listed as non-targeting (GFP) PNA): entirely ineffective
